Source: ChEMBL document CHEMBL1151122, “Diterpenoids from the roots of Salvia hypargeia” (1988)
Converted amounts (≈) assume the structure as drawn. The source made the active and inactive calls. The rule behind the calls is not given here.

What was measured:
[1] = tested on: Staphylococcus aureus; test: Antibacterial activity against Staphylococcus aureus ATCC 6538; type: functional, organism-based
[2] = tested on: Staphylococcus epidermidis; test: Antibacterial activity against Staphylococcus epidermidis ATCC 12228; type: functional, organism-based
[3] = tested on: Pseudomonas aeruginosa; test: Antibacterial activity against Pseudomonas aeruginosa ATCC 1539; type: functional, organism-based
[4] = tested on: Bacillus subtilis; test: Antibacterial activity against Bacillus subtilis ATCC 6633; type: functional, organism-based
[5] = tested on: Klebsiella pneumoniae; test: Antibacterial activity against Klebsiella pneumoniae UC 57; type: functional, organism-based
[6] = tested on: Staphylococcus aureus; test: Antibacterial activity against Staphylococcus aureus ATCC 6538 by disk diffusion method; type: functional
[7] = tested on: Staphylococcus epidermidis; test: Antibacterial activity against Staphylococcus epidermidis ATCC 12228 by disk diffusion method; type: functional
[8] = tested on: Pseudomonas aeruginosa; test: Antibacterial activity against Pseudomonas aeruginosa ATCC 1539 by disk diffusion method; type: functional
[9] = tested on: Bacillus subtilis; test: Antibacterial activity against Bacillus subtilis ATCC 6633 by disk diffusion method; type: functional
[10] = tested on: Klebsiella pneumoniae; test: Antibacterial activity against Klebsiella pneumoniae UC 57 by disk diffusion method; type: functional
[11] = tested on: Staphylococcus aureus; test: Antibacterial activity against Staphylococcus aureus ATCC 6538 by tube dilution method; type: functional
[12] = tested on: Klebsiella pneumoniae; test: Antibacterial activity against Klebsiella pneumoniae UC 57 by tube dilution method; type: functional
[13] = tested on: Bacillus subtilis; test: Antibacterial activity against Bacillus subtilis ATCC 6633 by tube dilution method; type: functional
[14] = tested on: Staphylococcus epidermidis; test: Antibacterial activity against Staphylococcus epidermidis ATCC 12228 by tube dilution method; type: functional
[15] = tested on: Pseudomonas aeruginosa; test: Antibacterial activity against Pseudomonas aeruginosa ATCC 1539 by tube dilution method; type: functional
[16] = tested on: Mycobacterium tuberculosis; test: Antitubercular activity against Mycobacterium tuberculosis H37Rv at 250 ug/ml; type: functional, organism-based

SMILES | Activity [1] | Activity [2] | Activity [3] | Activity [4] | Activity [5] | inhibition zone (IZ) [6] | inhibition zone (IZ) [7] | inhibition zone (IZ) [8] | inhibition zone (IZ) [9] | inhibition zone (IZ) [10] | MIC [11] | MIC [12] | MIC [13] | MIC [14] | MIC [15] | Activity [16]
CC(C)c1ccc2c(c1O)C[C@@H](O)[C@H]1C(C)(C)CCC(=O)[C@]21C | inactive | inactive | inactive | inactive | inactive |  |  |  |  |  |  |  |  |  |  | 
CC(C)c1cc2c(cc1O)[C@@]1(C)C(=O)CCC(C)(C)[C@@H]1[C@H](O)C2=O [HYPARGENIN A] |  |  |  |  |  | >7 mm | >7 mm | >7 mm | >7 mm | >7 mm | 15.6 µg/mL (≈ 47.2 µM) | 15.6 µg/mL (≈ 47.2 µM) |  |  |  | 
CC(C)(O)c1cc2c(cc1O)[C@@]1(C)CCCC(C)(C)[C@@H]1CC2=O [HYPARGENIN B] |  |  |  |  |  | >7 mm | >7 mm | >7 mm | >7 mm | >7 mm | 125 µg/mL (≈ 395 µM) | 125 µg/mL (≈ 395 µM) |  |  |  | 
CC(C)c1cc2c(cc1O)[C@@]1(C)CCCC(C)(C)[C@@H]1C(=O)C2=O [HYPARGENIN C] |  |  |  |  |  | >7 mm | >7 mm | >7 mm | >7 mm | >7 mm | 125 µg/mL (≈ 398 µM) |  | 15.6 µg/mL (≈ 49.6 µM) |  |  | 
CC(C)c1cc2c(cc1O)[C@@]1(C)CCC(=O)C(C)(C)[C@@H]1C=C2 [HYPARGENIN D] |  |  |  |  |  | >7 mm | >7 mm | >7 mm | >7 mm | >7 mm |  |  | 62.5 µg/mL (≈ 209 µM) |  |  | 
CC(C)C1=C(O)C(=O)C2=C(C=CC3(O)C(C)(C)CCC[C@]23C)C1=O (stereo partly specified) [HYPARGENIN F] |  |  |  |  |  | >7 mm | >7 mm | >7 mm | >7 mm | >7 mm | 125 µg/mL (≈ 378 µM) |  |  | 62.5 µg/mL (≈ 189 µM) | 125 µg/mL (≈ 378 µM) | Active
